Results reported in patent US20090264384A1, “INDOLE, BENZIMIDAZOLE, AND BENZOLACTAM BORONIC ACID COMPOUNDS, ANALOGS THEREOF AND METHODS OF USE THEREOF” (Nuada, Inc., priority 2004, published 2009).

What was measured:
AT2(h) = biological target: T1, AT2(h) (Homo sapiens, UniProt P50052); test: AT2(h) binding assay; conditions: read-out: % Inhibition of Control Specific Binding
T1 construct: expressed in transfected cells; host or cells: Hela cells

I2 (central) = I2 (central) binding assay; parameters: species or system rat; conditions: 1.0E−05 M
Opiate (non-selective) = Opiate (non-selective) binding assay; parameters: species or system rat; conditions: 1.0E−05 M
V2(h) = biological target: T2, V2(h) (Homo sapiens, UniProt P30518); test: V2(h) binding assay; conditions: 1.0E−05 M; read-out: % Inhibition of Control Specific Binding
T2 construct: expressed in transfected cells; host or cells: CHO cells
T2 sequence (P30518 whole entry): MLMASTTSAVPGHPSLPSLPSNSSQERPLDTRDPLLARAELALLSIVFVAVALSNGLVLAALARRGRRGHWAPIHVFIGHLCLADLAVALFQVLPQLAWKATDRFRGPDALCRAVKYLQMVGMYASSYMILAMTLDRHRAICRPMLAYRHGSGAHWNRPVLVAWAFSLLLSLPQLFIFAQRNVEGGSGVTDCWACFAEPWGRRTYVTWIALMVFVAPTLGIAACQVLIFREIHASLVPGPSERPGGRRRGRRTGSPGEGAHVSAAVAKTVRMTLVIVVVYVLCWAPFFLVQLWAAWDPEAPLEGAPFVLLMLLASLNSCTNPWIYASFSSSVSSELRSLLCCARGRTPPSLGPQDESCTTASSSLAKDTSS

Phosphodiesterase 3(h) = Phosphodiesterase 3(h) (Homo sapiens, UniProt Q14432); test: Phosphodiesterase 3(h) enzyme assay; assay type: biochemical; conditions: 1.0E−05 M
Sequence of Phosphodiesterase 3(h) (Q14432 674-1093 limits assumed): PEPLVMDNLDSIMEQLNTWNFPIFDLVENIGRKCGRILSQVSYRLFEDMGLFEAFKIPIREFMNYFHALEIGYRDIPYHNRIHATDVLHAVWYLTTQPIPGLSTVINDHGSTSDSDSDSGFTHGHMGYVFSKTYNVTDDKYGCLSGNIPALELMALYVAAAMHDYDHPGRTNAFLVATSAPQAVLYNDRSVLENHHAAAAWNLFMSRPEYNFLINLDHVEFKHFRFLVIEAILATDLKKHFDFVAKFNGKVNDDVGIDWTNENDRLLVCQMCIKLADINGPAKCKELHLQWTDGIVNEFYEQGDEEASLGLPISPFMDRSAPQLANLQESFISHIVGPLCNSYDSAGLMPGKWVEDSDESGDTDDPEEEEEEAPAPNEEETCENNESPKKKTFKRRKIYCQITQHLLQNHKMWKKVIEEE

[1] = test system: colitis provoked by trinitrobenzene sulphonic acid (TNBS); test: Rat model of colitis provoked by TNBS, 3 days, treatment from Day −1 (CCI-7308); assay type: in vivo; conditions: vs CMC group
Description: In the study, colonic macroscopic injury has been assessed, as has colonic weight as a reflection of colonic oedema, along with determination of MPO activity (Bradley et al, 1982) as an index of white cell infiltration for the evaluation of tissue injury. The methods and protocol used were substantially similar to those in Example 39, with some differences described below. TNBS Challenge—Male Wistar rats (270-330 g) were randomised into groups of 10-11 before commencement of the study. The following primary parameters were measured in the study: In addition, the weight of the colonic segment was assessed as an indirect and non-specific marker of oedema. The body weight of the animals was also determined and expressed as % change from the day of challenge. Treatments. All challenged groups were dosed orally twice daily from Day −1. The groups for study were: Colon homogenates for cytokine measurements. […] Tissue homogenates were lysed for 30 min. on ice, and then centrifuged (10 min., 14, 000×g). The aliquots of the supernatant were stored at −20° C. until use (Ten Hove et al., 2001). Tumour Necrosis Factor-a Activity. The TNF-α levels were determined with quantitative TNF-α solid-phase Enzyme Linked ImmunoSorbent Assay (ELISA), which is based on the sandwich principle (HyCult biotechnology b. V;. Cat number: […] At the end of the ELISA assay, the samples were measured spectrophotometrically (Benchmark Microplate reader, Bio-Rad Lab; λ=450 nm). The samples were diluted 2 or 4 times with the sample buffer included in the kit. The TNF-α values were expressed as pg/mg protein. This commercially available kit (Hycult Biotechnology b.v. Uden, The Netherlands. Catalogue number: […]

[2] = test system: chronic colitis provoked by trinitrobenzene sulphonic acid (TNBS); test: Rat model of chronic colitis provoked by TNBS over 14 days, treatment from Day 1; assay type: in vivo
[3] = 50 mg/kg/day p.o. in divided doses
[4] = 50 mg/kg/day p.o. from Day 1, Day 14, vs CMC group

T1 sequence (P50052 whole entry): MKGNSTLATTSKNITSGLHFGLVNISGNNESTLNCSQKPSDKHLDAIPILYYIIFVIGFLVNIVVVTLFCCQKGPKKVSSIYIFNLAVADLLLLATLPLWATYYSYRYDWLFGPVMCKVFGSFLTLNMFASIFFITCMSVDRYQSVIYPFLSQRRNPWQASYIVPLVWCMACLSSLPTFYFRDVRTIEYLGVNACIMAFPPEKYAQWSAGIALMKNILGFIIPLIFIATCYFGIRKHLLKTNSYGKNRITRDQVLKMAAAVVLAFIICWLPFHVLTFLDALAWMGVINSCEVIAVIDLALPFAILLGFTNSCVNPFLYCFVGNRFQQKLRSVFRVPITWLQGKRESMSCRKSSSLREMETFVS

Structure (SMILES) | inhibition at 10 µM (AT2(h)) | % Inhibition of Control Specific Binding (I2 (central)) | % Inhibition of Control Specific Binding (Opiate (non-selective)) | inhibition at 10 µM (V2(h)) | % Inhibition of Control Values (Phosphodiesterase 3(h)) | attenuation of TNBS-induced fall in body weight (% change in body weight at Day 0) ([1]; 50 mg/kg/day p.o. in divided doses b.i.d.) | reduction in area of macroscopic colonic injury ([1]; 50 mg/kg/day p.o. in divided doses, 72 h after TNBS) | reduction in colon weight [1, 3] | reduction in colonic MPO activity [1, 3] | reduction in colonic TNF-α levels [1, 3] | macroscopic Damage Score ([2]; 50 mg/kg/day p.o. from Day 1, Day 14) | reduction in colon weight [2, 4] | reduction in colonic MPO activity [2, 4] | reduction in colonic TNF-α levels [2, 4] | reduction in colonic lesion area (% of the total area measured) [2, 4] | attenuation of TNBS-induced fall in body weight (% change of body weight at Day −1) ([2]; 50 mg/kg/day p.o. in divided doses from Day 1, over 14 days, vs CMC group)
N#Cc1ccc2c(ccn2CCCCCB(O)O)c1 [Example 20, 5-(5-cyano-1H-indol-1-yl)pentylboronic acid] | 3% | 1% | 20% | 5% | 95% | – | – | – | – | – | – | – | – | – | – | –
O=C(O)c1cc(/N=N/c2ccc(S(=O)(=O)Nc3ccccn3)cc2)ccc1O [sulfasalazine, reference compound] | – | – | – | – | – | reached statistical significance at Day 1, 2 and 3 | significantly (P<0.001) reduced the extent of macroscopic injury | significant (P<0.05) reduction in colon weight | significantly reduced the elevated colonic levels of MPO | significantly reduced the elevated colonic levels of TNF-α | reduced the damage score | significant (P<0.05) reduction in colon weight | significantly (P<0.001) reduced the elevated colonic levels of MPO | significantly reduced the elevated colonic levels of TNF-α | significantly (P<0.001) reduced the extent of macroscopic injury | reached statistical significance compared with the CMC challenged group on at Day 2, 3, 6 and 7
